Data published in ChEMBL document CHEMBL3885881, “DrugMatrix”.

Organism: Rattus norvegicus
Assay: DrugMatrix - Regimen: Daily Repeat
Assay type: toxicity, organism-based, Sprague-Dawley
Parameters: regimen Daily Repeat, gender Male, age 6-8 weeks
Details: in vivo, po, route oral GAVAGE, […]; for ABSOLUTE BASOPHIL / ABSOLUTE EOSINOPHIL / ABSOLUTE LYMPHOCYTE / ABSOLUTE MONOCYTE / ABSOLUTE SEGMENTED NEUTROPHIL / BASOPHIL / EOSINOPHIL / ERYTHROCYTE COUNT / HEMATOCRIT / HEMOGLOBIN / LEUKOCYTE COUNT / LYMPHOCYTE / MEAN CORPUSCULAR HEMOGLOBIN / MEAN CORPUSCULAR HEMOGLOBIN CONCENTRATION / MEAN CORPUSCULAR VOLUME / MONOCYTE / NEUTROPHIL / NUCLEATED RED BLOOD CELLS / PLATELET COUNT: tissue Blood; for ALANINE AMINOTRANSFERASE / ALBUMIN / ALKALINE PHOSPHATASE / ASPARTATE AMINOTRANSFERASE / BLOOD UREA NITROGEN / CARBON DIOXIDE / CHLORIDE / CHOLESTEROL / CREATINE PHOSPHOKINASE / CREATININE / GLUCOSE / LACTATE DEHYDROGENASE / LIPASE / PHOSPHORUS / POTASSIUM / SODIUM / TOTAL BILIRUBIN / TOTAL PROTEIN / URIC ACID: tissue Plasma
[1] = 0 mg/kg, 72 h, dose level Control, time 3 day
[2] = 0 mg/kg, 120 h, dose level Control, time 5 day
[3] = 10 mg/kg, 72 h, dose level Low, time 3 day

COc1cc(N)c(Cl)cc1C(=O)NC1CCN(CCCOc2ccc(F)cc2)CC1OC (centres undefined) [CISAPRIDE]
ABSOLUTE BASOPHIL [1]: 0 CELLS/uL | ABSOLUTE EOSINOPHIL [1]: 13.67 CELLS/uL | ABSOLUTE LYMPHOCYTE [1]: 10069.5 CELLS/uL | ABSOLUTE MONOCYTE [1]: 50 CELLS/uL | ABSOLUTE SEGMENTED NEUTROPHIL [1]: 516.83 CELLS/uL | BASOPHIL [1]: 0% | EOSINOPHIL [1]: 0.17% | ERYTHROCYTE COUNT [1]: 5.44 x10E6/uL | HEMATOCRIT [1]: 33.88% | HEMOGLOBIN [1]: 13.23 G/DL | LEUKOCYTE COUNT [1]: 10.65 x10E3/uL | LYMPHOCYTE [1]: 94.67% | MEAN CORPUSCULAR HEMOGLOBIN [1]: 24.37 pg | MEAN CORPUSCULAR HEMOGLOBIN CONCENTRATION [1]: 39.05 G/DL | MEAN CORPUSCULAR VOLUME [1]: 62.38 fL | MONOCYTE [1]: 0.67% | NEUTROPHIL [1]: 4.5% | NUCLEATED RED BLOOD CELLS [1]: 0.33 /100WBC | PLATELET COUNT [1]: 414.5 x10E3/uL | ALANINE AMINOTRANSFERASE [1]: 72 u/L | ALBUMIN [1]: 3.75 G/DL | ALKALINE PHOSPHATASE [1]: 375 u/L | ASPARTATE AMINOTRANSFERASE [1]: 87.5 u/L | BLOOD UREA NITROGEN [1]: 14 mg/dL | CARBON DIOXIDE [1]: 27.5 mmol/L | CHLORIDE [1]: 95.83 MEQ/L | CHOLESTEROL [1]: 68.5 mg/dL | CREATINE PHOSPHOKINASE [1]: 284.33 u/L | CREATININE [1]: 0.16 mg/dL | GLUCOSE [1]: 156.67 mg/dL | LACTATE DEHYDROGENASE [1]: 101.83 u/L | LIPASE [1]: 9.67 u/L | PHOSPHORUS [1]: 10.33 mg/dL | POTASSIUM [1]: 5.22 MEQ/L | SODIUM [1]: 137.67 MEQ/L | TOTAL BILIRUBIN [1]: 0.13 mg/dL | TOTAL PROTEIN [1]: 5.43 G/DL | URIC ACID [1]: 0.8 mg/dL | ABSOLUTE BASOPHIL [2]: 0 CELLS/uL | ABSOLUTE EOSINOPHIL [2]: 20.67 CELLS/uL | ABSOLUTE LYMPHOCYTE [2]: 11518.33 CELLS/uL | ABSOLUTE MONOCYTE [2]: 47 CELLS/uL | ABSOLUTE SEGMENTED NEUTROPHIL [2]: 614 CELLS/uL | BASOPHIL [2]: 0% | EOSINOPHIL [2]: 0.17% | ERYTHROCYTE COUNT [2]: 5.61 x10E6/uL | HEMATOCRIT [2]: 34.25% | HEMOGLOBIN [2]: 13.38 G/DL | LEUKOCYTE COUNT [2]: 12.2 x10E3/uL | LYMPHOCYTE [2]: 94.33% | MEAN CORPUSCULAR HEMOGLOBIN [2]: 23.83 pg | MEAN CORPUSCULAR HEMOGLOBIN CONCENTRATION [2]: 39.08 G/DL | MEAN CORPUSCULAR VOLUME [2]: 61.03 fL | MONOCYTE [2]: 0.33% | NEUTROPHIL [2]: 5.17% | NUCLEATED RED BLOOD CELLS [2]: 0 /100WBC | PLATELET COUNT [2]: 941.83 x10E3/uL | ALANINE AMINOTRANSFERASE [2]: 68.83 u/L | ALBUMIN [2]: 4.12 G/DL | ALKALINE PHOSPHATASE [2]: 492.67 u/L | ASPARTATE AMINOTRANSFERASE [2]: 83.33 u/L | BLOOD UREA NITROGEN [2]: 14 mg/dL | CARBON DIOXIDE [2]: 37 mmol/L | CHLORIDE [2]: 98.67 MEQ/L | CHOLESTEROL [2]: 56.5 mg/dL | CREATINE PHOSPHOKINASE [2]: 167.33 u/L | CREATININE [2]: 0.17 mg/dL | GLUCOSE [2]: 157.5 mg/dL | LACTATE DEHYDROGENASE [2]: 104.83 u/L | LIPASE [2]: 10 u/L | PHOSPHORUS [2]: 10.43 mg/dL | POTASSIUM [2]: 5.46 MEQ/L | SODIUM [2]: 143.87 MEQ/L | TOTAL BILIRUBIN [2]: 0.17 mg/dL | TOTAL PROTEIN [2]: 5.72 G/DL | URIC ACID [2]: 0.85 mg/dL | ABSOLUTE BASOPHIL [3]: 0 CELLS/uL | ABSOLUTE EOSINOPHIL [3]: 28.67 CELLS/uL | ABSOLUTE LYMPHOCYTE [3]: 6489.33 CELLS/uL | ABSOLUTE MONOCYTE [3]: 15.33 CELLS/uL | ABSOLUTE SEGMENTED NEUTROPHIL [3]: 433.33 CELLS/uL | BASOPHIL [3]: 0% | EOSINOPHIL [3]: 0.33% | ERYTHROCYTE COUNT [3]: 5.4 x10E6/uL | HEMATOCRIT [3]: 33.3% | HEMOGLOBIN [3]: 13.8 G/DL | LEUKOCYTE COUNT [3]: 6.97 x10E3/uL | LYMPHOCYTE [3]: 93% | MEAN CORPUSCULAR HEMOGLOBIN [3]: 25.63 pg | MEAN CORPUSCULAR HEMOGLOBIN CONCENTRATION [3]: 41.53 G/DL | MEAN CORPUSCULAR VOLUME [3]: 61.73 fL | MONOCYTE [3]: 0.33% | NEUTROPHIL [3]: 6.33% | NUCLEATED RED BLOOD CELLS [3]: 0 /100WBC | PLATELET COUNT [3]: 546 x10E3/uL | ALANINE AMINOTRANSFERASE [3]: 94.67 u/L | ALBUMIN [3]: 3.93 G/DL | ALKALINE PHOSPHATASE [3]: 442.33 u/L | ASPARTATE AMINOTRANSFERASE [3]: 96.33 u/L | BLOOD UREA NITROGEN [3]: 14.33 mg/dL | CARBON DIOXIDE [3]: 26 mmol/L | CHLORIDE [3]: 96.33 MEQ/L | CHOLESTEROL [3]: 72.67 mg/dL | CREATINE PHOSPHOKINASE [3]: 359.33 u/L | CREATININE [3]: 0.12 mg/dL | GLUCOSE [3]: 150 mg/dL | LACTATE DEHYDROGENASE [3]: 116.67 u/L | LIPASE [3]: 12 u/L | PHOSPHORUS [3]: 10.9 mg/dL | POTASSIUM [3]: 5.56 MEQ/L | SODIUM [3]: 139.97 MEQ/L | TOTAL BILIRUBIN [3]: 0.2 mg/dL | TOTAL PROTEIN [3]: 5.53 G/DL | URIC ACID [3]: 0.7 mg/dL
